Measured values from patent US9522935B2, “Commands and method of treating cancer via RHO pathway” (priority 2013, dated 2016).

Tests used:
[1] = test system: Panc1 cells; experiment: MTT assay, compounds related to LD030 on Panc1 cells; assay type: cell-based, human; settings: 48 hours; for inhibition at 0.1 µM / inhibition at 1 µM / inhibition at 10 µM / inhibition at 100 µM: Homo sapiens, PANC-1, read-out: Effects on Panc1 Cells (inhibitory percentage)
Method: (§1) MTT assay was used to detect cell viability after being treated with different compounds of the present invention related to LD030. The cell lines treated were on non-small lung cancer cell line A549, HepG2 cells and Panc1 cells.
(§2) MTT preservation solution preparation: 0.5 g MTT was dissolved in 100 ml of phosphate buffer solution (PBS), and bacteria contaminates were removed with a 0.22 μm membrane filter to obtain 0.5% MTT solution, which was stored in the dark at −20° C.
(§3) MTT working solution preparation: MTT preservation solution was diluted 10 times with sterile PBS to obtain MTT working solution.
(§4) 1640 complete medium preparation: 1640 base medium was added with an amount of fetal bovine serum (FBS) so that the medium contains 10% FBS by volume. Then an amount of double-antibody (i.e., penicillin and streptomycin) was added to make final concentration of penicillin at 100 units/ml and streptomycin at 100 ug/ml.
(§5) The experimental procedure is as follows:
(§6) (1) Take trypsin digested logarithmic phase cells and adjust the concentration of the cell suspension to 6×10^4 cell/ml, and then add 100 ul suspension of the cells under the test to each well on a 96-well plate and adjusted to a density of 6000 cells/well. The edge orifice is filled with sterile PBS.
(§7) (2) Placed the 96-well plate into a 37° C. incubator with 5% CO2 and incubate it overnight.
(§8) (3) Dissolve the test compounds in 200 ul DMSO to get a 5 mg/ml solution and dilute it to get 100 uM, 10 uM, 1 uM and 0.1 uM solutions. Add 100 ul of a solution to each of three repeat wells. Set a control well which has cells but without the compound of the present invention and a blank cell which contains no cells.
(§9) (4) Put the 96-well plate into a 37° C. incubator with 5% CO2 and incubate it for 48 hours. Examine the cells daily under a microscope.
(§10) (5) After being cultured for 48 hours, centrifuge and discard the culture liquid. Add 100 ul MTT working solution to each well, and continue incubating for 4 h.
(§11) (6) Terminate the culture, and carefully remove the culture medium. Then add 100 ul DMSO to each well and shake it at a low speed in a shaker for 10 min to make all crystals fully dissolved. The absorbance value of each well was measured by an enzyme-linked immunosorbent detector at the OD570 nm, and the inhibition rate of the different compounds with different concentration on cell growth can be obtained.

[2] = test system: non-small lung cancer cell line A549; experiment: MTT assay, compounds related to LD030 on A549 cells; assay type: cell-based; settings: for inhibition at 0.1 µM / inhibition at 1 µM / inhibition at 10 µM / inhibition at 100 µM: Homo sapiens, A549, read-out: Effects on A549 Cells (inhibitory percentage); for inhibition at 0.1 µM / inhibition at 1 µM / inhibition at 10 µM / inhibition at 100 µM / Effects on A549 Cells (inhibitory percentage): 48 hours
Method: as §1, §2, §3, §4, §5, §6, §7, §8, §9, §10, §11

[3] = test system: HepG2 cells; experiment: MTT assay, compounds related to LD030 on HepG2 cells; assay type: cell-based, human; settings: 48 hours; for inhibition at 0.1 µM / inhibition at 1 µM / inhibition at 10 µM / inhibition at 100 µM: Homo sapiens, HepG2, read-out: Effects on HepG2 Cells (inhibitory percentage)
Method: as §1, §2, §3, §4, §5, §6, §7, §8, §9, §10, §11

[4] = test system: pancreatic cancer cell lines; experiment: Nude mouse model of pancreatic cancer (xenograft), tumor size; assay type: in vivo, NOD/SCID mice; settings: 43 days
Method: Two strains of pancreatic cancer cell lines were selected to be grafted to nonobese diabetic/severe combined immunodeficient (NOD/SCID) mice, and the tumor was inoculated in mouse ventral sides. About two weeks, they were used as a nude mouse model of pancreatic cancer. […] Each of the above groups. The treatment continued for 43 days (gemcitabine alone group 2 times a week; other groups 3 times a week), and then tumor size was recorded as shown in FIG. 16. […] Further experiments were conducted to study the effects of the combinational use of LD030 with gemcitabine as compared being used alone on tumor inhibition. Four treatment groups were set up: (a) blank control, (2) gemcitabine (25 mg/kg/time, 2 times a week), (3) LD030 (0.5 mg/kg/time, 3 times a week), (4) LD030 (0.5 mg/kg/time, 3 times a week) together with gemcitabine (25 mg/kg/time, 2 times a week).

Row | Structure (SMILES) | inhibition at 0.1 µM ([1]; 0.1 μM) | inhibition at 1 µM ([1]; 1 μM) | inhibition at 10 µM ([1]; 10 μM) | inhibition at 100 µM ([1]; 100 μM) | inhibition at 0.1 µM ([2]; 0.1 μM) | inhibition at 1 µM ([2]; 1 μM) | inhibition at 10 µM ([2]; 10 μM) | inhibition at 100 µM ([2]; 100 μM) | inhibition at 0.1 µM ([3]; 0.1 μM) | inhibition at 1 µM ([3]; 1 μM) | inhibition at 10 µM ([3]; 10 μM) | inhibition at 100 µM ([3]; 100 μM) | also measured
1 | CC(=O)O[C@H]1CC[C@@]2(C)[C@@H](CCC34OC32CC[C@]2(C)C(C(C)CCC(O)C(C)(C)O)CC[C@@]42C)C1(C)C (some centres unmarked) [LD027] | 2.21% | 10.1% | 16.7% | 28.7% | -1.4% | -4.98% | 12.9% | 58.6% | – | – | – | – | –
2 | CC(=O)O[C@H]1CC[C@]2(C)C3CC[C@]4(C)C(C(C)CCC(O)C(C)(C)O)CC[C@@]4(C)C3CC[C@H]2C1(C)C (some centres unmarked) [LD 028] | -9.19% | -0.48% | -0.4% | 0.16% | 3.24% | 10% | -1.75% | 29.2% | 29.4% | 37.4% | 67.8% | 45.8% | –
3 | CC(=O)OC(CCC(C)C1CC[C@@]2(C)C3=C(CC[C@]12C)[C@@]1(C)CC[C@H](OC(C)=O)C(C)(C)[C@@H]1CC3)C(C)(C)OC(C)=O (some centres unmarked) [LD 022] | – | – | – | – | – | – | – | – | – | – | – | – | Effects on Panc1 Cells (inhibitory percentage) ([1]; 0.1 μM): −6.95%; Effects on Panc1 Cells (inhibitory percentage) ([1]; 1 μM): −5.28%; Effects on Panc1 Cells (inhibitory percentage) ([1]; 10 μM): −2.48%; Effects on Panc1 Cells (inhibitory percentage) ([1]; 100 μM): −6.24%; Effects on HepG2 Cells (inhibitory percentage) ([3]; 0.1 μM): 20.67%; Effects on HepG2 Cells (inhibitory percentage) ([3]; 1 μM): 31.18%; Effects on HepG2 Cells (inhibitory percentage) ([3]; 10 μM): 24.88%; Effects on HepG2 Cells (inhibitory percentage) ([3]; 100 μM): 24.54%; Effects on A549 Cells (inhibitory percentage) ([2]; 0.1 μM): 4.73%; Effects on A549 Cells (inhibitory percentage) ([2]; 1 μM): 8.99%; Effects on A549 Cells (inhibitory percentage) ([2]; 10 μM): 6.92%; Effects on A549 Cells (inhibitory percentage) ([2]; 100 μM): 35.89%
4 | CC(=O)OC(CCC(C)C1CC[C@@]2(C)C3=C(CC[C@]12C)[C@@]1(C)CCC(=O)C(C)(C)[C@@H]1CC3)C(C)(C)OC(C)=O (some centres unmarked) [LD 014] | -5.26% | -3.05% | 3.89% | 24.1% | 21.3% | 9.46% | 3.02% | 34.6% | 0.64% | -20.7% | 2.93% | 61.4% | –
5 | Nc1ccn([C@@H]2O[C@H](CO)[C@@H](O)C2(F)F)c(=O)n1 [gemcitabine, reference compound] | – | – | – | – | – | – | – | – | – | – | – | – | tumor volume reduced ([4]; 25 mg/kg/time gemcitabine, FIG. 15): 37%; tumor size reduced ([4]; gemcitabine 25 mg/kg/time, 2 times a week, FIG. 17): 37%
6 | CC(=O)O[C@H]1CC[C@]2(C)C3=C(CC[C@H]2C1(C)C)[C@]1(C)CCC(C(C)CCC(O)C(C)(C)O)[C@@]1(C)CC3 (some centres unmarked) [LD 021] | -12.6% | -4.96% | 2.16% | 48.8% | 3.13% | 1.31% | 1.53% | 45.5% | 12.7% | 13.1% | 12.7% | 24.6% | –
7 | CC(=O)O[C@H]1CC[C@@]2(C)[C@@H](CCC34OC32CC[C@]2(C)C(C(C)CCC3OC3(C)C)CC[C@@]42C)C1(C)C (some centres unmarked) [LD 026-2] | 8.79% | 7.59% | 14.6% | 21.5% | 2.51% | 6.88% | -2.33% | 33% | 20.3% | 32.8% | 20.8% | 33.9% | –
8 | CC(C)=CCC[C@@H](C)[C@H]1CC[C@@]2(C)C3=C(CC[C@]12C)[C@@]1(C)CCC(=O)C(C)(C)[C@@H]1CC3 [LD 012] | – | – | – | – | – | – | – | – | – | – | – | – | Effects on Panc1 Cells (inhibitory percentage) ([1]; 0.1 μM): 5.68%; Effects on Panc1 Cells (inhibitory percentage) ([1]; 1 μM): 5.68%; Effects on Panc1 Cells (inhibitory percentage) ([1]; 10 μM): 10.20%; Effects on Panc1 Cells (inhibitory percentage) ([1]; 100 μM): 39.54%; Effects on HepG2 Cells (inhibitory percentage) ([3]; 0.1 μM): 10.53%; Effects on HepG2 Cells (inhibitory percentage) ([3]; 1 μM): −15.82%; Effects on HepG2 Cells (inhibitory percentage) ([3]; 10 μM): −1.79%; Effects on HepG2 Cells (inhibitory percentage) ([3]; 100 μM): 47.72%; Effects on A549 Cells (inhibitory percentage) ([2]; 0.1 μM): 1.31%; Effects on A549 Cells (inhibitory percentage) ([2]; 1 μM): 28.04%; Effects on A549 Cells (inhibitory percentage) ([2]; 10 μM): 39.34%; Effects on A549 Cells (inhibitory percentage) ([2]; 100 μM): 91.76%; inhibition rate on A549 ([2]; concentration not given): more than 90%
9 | CC(=O)OC(CCC(C)C1CC[C@@]2(C)C34CC[C@H]5C(C)(C)[C@@H](OC(C)=O)CC[C@]5(C)C3(CC[C@]12C)O4)C(C)(C)OC(C)=O (some centres unmarked) [LD023] | – | – | – | – | – | – | – | – | – | – | – | – | Effects on Panc1 Cells (inhibitory percentage) ([1]; 0.1 μM): −5.92%; Effects on Panc1 Cells (inhibitory percentage) ([1]; 1 μM): −1.12%; Effects on Panc1 Cells (inhibitory percentage) ([1]; 10 μM): −2.56%; Effects on Panc1 Cells (inhibitory percentage) ([1]; 100 μM): 25.26%; Effects on HepG2 Cells (inhibitory percentage) ([3]; 0.1 μM): 26.53%; Effects on HepG2 Cells (inhibitory percentage) ([3]; 1 μM): 27.64%; Effects on HepG2 Cells (inhibitory percentage) ([3]; 10 μM): 19.13%; Effects on HepG2 Cells (inhibitory percentage) ([3]; 100 μM): 23.00%; Effects on A549 Cells (inhibitory percentage) ([2]; 0.1 μM): 8.01%; Effects on A549 Cells (inhibitory percentage) ([2]; 1 μM): 8.30%; Effects on A549 Cells (inhibitory percentage) ([2]; 10 μM): 6.11%; Effects on A549 Cells (inhibitory percentage) ([2]; 100 μM): 12.70%
10 | CC(CCC(O)C(C)(C)O)C1CC[C@@]2(C)C34CC[C@H]5C(C)(C)[C@@H](O)CC[C@]5(C)C3(CC[C@]12C)O4 (some centres unmarked) [LD 024] | -7.19% | -8.39% | -13% | 6.95% | 1.38% | 6.04% | -0.22% | 34.6% | 22% | 14.3% | 5.86% | 2.1% | –
11 | CC(=O)O[C@H]1CC[C@]2(C)C3=C(CC[C@H]2C1(C)C)[C@]1(C)CCC(C(C)CCC2OC2(C)C)[C@@]1(C)CC3 (some centres unmarked) [LD 026-1] | -2.84% | 9.46% | 8.83% | 34.4% | 21.8% | 6.66% | 8.3% | 39.8% | -3.32% | -0.13% | 12.7% | 58.1% | –
12 | CC(CCC(=O)C(C)(C)O)C1CC[C@@]2(C)C34CC[C@H]5C(C)(C)C(=O)CC[C@]5(C)C3(CC[C@]12C)O4 (some centres unmarked) [LD 025] | -16.5% | -12.8% | -9.57% | -16% | 25.2% | 1.71% | 0.51% | 16.9% | -1.15% | -19.1% | -1.79% | 20.5% | –
